Reference: the supplement of paper PMC5908809

Key:
[1] = test system: normal NK cells expanded with K562-aAPC; experiment: percent inhibition of viability; higher = more inhibition; conditions: 72 h, IL-2 2.5 ng/mL
Description: (§1)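 Drug sensitivity and resistance testing on K562-aAPC-expanded normal NK cells: 5 concentrations (10-fold steps over a 10,000-fold range), 72 h at 37 °C, viability by CellTiter-Glo normalised to DMSO and benzethonium chloride controls; DSS from the fitted curve.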

IMC-1 (IL-2 20 ng/mL) [2] = experiment: as above; conditions: 72 h
SNK-6 (IL-2 2.5 ng/mL) [3] = experiment: as above; conditions: 72 h
[4] = test system: normal primary NK cells, pool 3 (3 donors) (IL-2 2.5 ng/mL); experiment: as above; conditions: 72 h
NKL (IL-2 2.5 ng/mL) [5] = experiment: as above; conditions: 72 h
YT (IL-2 2.5 ng/mL) [6] = experiment: as above; conditions: 72 h
NK-92 (IL-2 2.5 ng/mL) [7] = experiment: as above; conditions: 72 h
[8] = test system: normal primary NK cells, pool 2 (3 donors) (IL-2 2.5 ng/mL); experiment: as above; conditions: 72 h
[9] = test system: normal primary NK cells, pool 1 (3 donors), resting (IL-2 0 ng/mL); experiment: as above; conditions: 72 h
KAI3 (IL-2 2.5 ng/mL) [10] = experiment: as above; conditions: 72 h
KHYG-1 (IL-2 2.5 ng/mL) [11] = experiment: as above; conditions: 72 h
[12] = test system: normal primary NK cells, pool 1 (3 donors) (IL-2 2.5 ng/mL); experiment: as above; conditions: 72 h
DERL-7 (IL-2 2.5 ng/mL) [13] = experiment: as above; conditions: 72 h
NK-YS (IL-2 2.5 ng/mL) [14] = experiment: as above; conditions: 72 h
IMC-1 (IL-2 20 ng/mL) [15] = experiment: drug sensitivity score (DSS) (DSS units); higher = more sensitive; extreme values may be limits of the assay; conditions: 72 h
SNK-6 (IL-2 2.5 ng/mL) [16] = experiment: as above; conditions: 72 h
[17] = test system: normal primary NK cells, pool 3 (3 donors) (IL-2 2.5 ng/mL); experiment: as above; conditions: 72 h
NKL (IL-2 2.5 ng/mL) [18] = experiment: as above; conditions: 72 h
YT (IL-2 2.5 ng/mL) [19] = experiment: as above; conditions: 72 h
NK-92 (IL-2 2.5 ng/mL) [20] = experiment: as above; conditions: 72 h
[21] = test system: normal primary NK cells, pool 2 (3 donors) (IL-2 2.5 ng/mL); experiment: as above; conditions: 72 h
[22] = test system: normal primary NK cells, pool 1 (3 donors), resting (IL-2 0 ng/mL); experiment: as above; conditions: 72 h
KAI3 (IL-2 2.5 ng/mL) [23] = experiment: as above; conditions: 72 h
KHYG-1 (IL-2 2.5 ng/mL) [24] = experiment: as above; conditions: 72 h
[25] = test system: normal primary NK cells, pool 1 (3 donors) (IL-2 2.5 ng/mL); experiment: as above; conditions: 72 h
DERL-7 (IL-2 2.5 ng/mL) [26] = experiment: as above; conditions: 72 h
NK-YS (IL-2 2.5 ng/mL) [27] = experiment: as above; conditions: 72 h
[28] = test system: normal NK cells expanded with K562-aAPC; experiment: as above; conditions: 72 h; IL-2 2.5 ng/mL
Description: as §1

N[C@@H]1CCCN(c2c(/C=C3\SC(=O)NC3=O)cccc2-c2ccccc2)C1 [AZD1208] (max concentration tested 10000 nM)
percent inhibition of viability [%]
Conditions	1 nM	10 nM	100 nM	1000 nM	10000 nM
DERL-7 (IL-2 2.5 ng/mL) [13]	1.77	2.67	16.4	40.2	56.5
IMC-1 (IL-2 20 ng/mL) [2]	-4.38	-1.65	-10.7	-5.11	-8.15
KAI3 (IL-2 2.5 ng/mL) [10]	-0.84	0.89	7.33	28.1	34.3
KHYG-1 (IL-2 2.5 ng/mL) [11]	-4.34	-1.4	1.04	10.7	23.3
NK-92 (IL-2 2.5 ng/mL) [7]	-9.08	-8.5	-4.31	0.29	9
NK-YS (IL-2 2.5 ng/mL) [14]	-4.63	0.2	2.23	14.4	31.6
NKL (IL-2 2.5 ng/mL) [5]	-10.7	-16.5	4.37	35.7	49.5
SNK-6 (IL-2 2.5 ng/mL) [3]	-0.39	4.45	-2.55	5.71	12
YT (IL-2 2.5 ng/mL) [6]	-7.46	-4.31	-0.8	3.09	7.52
[1]	-4.31	-0.72	10.2	26	28.9
[4]	-9.02	-6.59	-2.09	5.05	11.5
[8]	-5.92	-0.84	8.9	12.8	19.5
[9]	-10.1	0.65	23.9	23.6	23
[12]	-8.45	-3.78	9.24	17.3	18.6

Conditions	drug sensitivity score
DERL-7 (IL-2 2.5 ng/mL) [26]	9.28
IMC-1 (IL-2 20 ng/mL) [15]	0
KAI3 (IL-2 2.5 ng/mL) [23]	5.48
KHYG-1 (IL-2 2.5 ng/mL) [24]	1.82
NK-92 (IL-2 2.5 ng/mL) [20]	0
NK-YS (IL-2 2.5 ng/mL) [27]	2.84
NKL (IL-2 2.5 ng/mL) [18]	7.1
SNK-6 (IL-2 2.5 ng/mL) [16]	0.26
YT (IL-2 2.5 ng/mL) [19]	0
[17]	0.17
[21]	1.86
[22]	6.52
[25]	3.28
[28]	5.29

COc1ccc(-c2ccc3c(N4CCOC[C@@H]4C)nc(N4CCOC[C@@H]4C)nc3n2)cc1CO [AZD8055] (max concentration tested 10000 nM)
percent inhibition of viability [%]
Conditions	1 nM	10 nM	100 nM	1000 nM	10000 nM
DERL-7 (IL-2 2.5 ng/mL) [13]	0.54	34.1	65.8	86.8	88.3
IMC-1 (IL-2 20 ng/mL) [2]	1.04	-9.13	-36.4	1.86	16.9
KAI3 (IL-2 2.5 ng/mL) [10]	16.4	25.7	50.1	58.8	60.9
KHYG-1 (IL-2 2.5 ng/mL) [11]	3.41	7.07	30.4	82.5	82.6
NK-92 (IL-2 2.5 ng/mL) [7]	8.5	22.1	48.4	64.4	97.2
NK-YS (IL-2 2.5 ng/mL) [14]	4.19	9.89	45.4	66.8	78.2
NKL (IL-2 2.5 ng/mL) [5]	9.88	42.8	61.2	63.9	61.8
SNK-6 (IL-2 2.5 ng/mL) [3]	-1.89	12.4	53.8	54.5	54.5
YT (IL-2 2.5 ng/mL) [6]	7.4	12.9	43.8	56.6	68.3
[1]	6.73	19.9	29.3	42.1	41.3
[4]	-5.43	8.78	9.67	14.1	16.9
[8]	-5.63	5.36	15.5	20	22.5
[9]	-13.5	-7.65	-3.85	9.37	-4.87
[12]	-5.65	6.16	8.42	38.2	29.2

Conditions	drug sensitivity score
DERL-7 (IL-2 2.5 ng/mL) [26]	27.5
IMC-1 (IL-2 20 ng/mL) [15]	0.56
KAI3 (IL-2 2.5 ng/mL) [23]	20.6
KHYG-1 (IL-2 2.5 ng/mL) [24]	18.6
NK-92 (IL-2 2.5 ng/mL) [20]	20.7
NK-YS (IL-2 2.5 ng/mL) [27]	18.9
NKL (IL-2 2.5 ng/mL) [18]	25.5
SNK-6 (IL-2 2.5 ng/mL) [16]	19.1
YT (IL-2 2.5 ng/mL) [19]	17.3
[17]	2.13
[21]	4.67
[22]	0
[25]	8.04
[28]	12.8

Cc1ncc(-c2ccnc(Nc3ccc(S(C)(=O)=O)cc3)n2)n1C(C)C [AZD-5438] (max concentration tested 10000 nM)
percent inhibition of viability [%]
Conditions	1 nM	10 nM	100 nM	1000 nM	10000 nM
DERL-7 (IL-2 2.5 ng/mL) [13]	-5.59	2.74	-9.82	31.4	100
IMC-1 (IL-2 20 ng/mL) [2]	-2.44	-0.85	6.12	39.1	101
KAI3 (IL-2 2.5 ng/mL) [10]	-3.46	-9.8	-5.74	41.5	102
KHYG-1 (IL-2 2.5 ng/mL) [11]	0.77	0.77	0.38	45.4	105
NK-92 (IL-2 2.5 ng/mL) [7]	-5.15	-8.65	-22.7	-0.77	104
NK-YS (IL-2 2.5 ng/mL) [14]	-2.69	-3.59	1.96	59.8	103
NKL (IL-2 2.5 ng/mL) [5]	-7.07	-5.93	-18.1	3.89	103
SNK-6 (IL-2 2.5 ng/mL) [3]	-9.66	-5.34	6.52	-1.33	58.4
YT (IL-2 2.5 ng/mL) [6]	-1.56	-0.25	0.72	24	105
[1]	0.15	-0.53	-5.24	6.05	101
[4]	-7.04	-10.4	1.54	18.4	99.4
[8]	-12.1	-8.8	-8.52	15.6	96.9
[9]	4.17	-8.18	-42.6	-99.9	91.4
[12]	-7.21	-12.4	-17.5	11.4	98

Conditions	drug sensitivity score
DERL-7 (IL-2 2.5 ng/mL) [26]	10
IMC-1 (IL-2 20 ng/mL) [15]	10.5
KAI3 (IL-2 2.5 ng/mL) [23]	11
KHYG-1 (IL-2 2.5 ng/mL) [24]	11.3
NK-92 (IL-2 2.5 ng/mL) [20]	5.86
NK-YS (IL-2 2.5 ng/mL) [27]	12.6
NKL (IL-2 2.5 ng/mL) [18]	6.34
SNK-6 (IL-2 2.5 ng/mL) [16]	3.04
YT (IL-2 2.5 ng/mL) [19]	9.28
[17]	8.5
[21]	7.94
[22]	3.02
[25]	7.3
[28]	6.5
